From patent US20030176381A1, “Hyaluronic acid in the treatment of cancer” (priority 2002, published 2003)

Experiments:
[1] = tested on: MCF-7 human breast cancer cells; assay: MTT cell proliferation, MCF-7; assay type: cell-based; settings: MCF-7 (2.5 X 10^5 cells/ml)
[2] = tested on: IL-6 production by peripheral blood mononuclear cells; assay: IL-6 production by PBMCs (ELISA); assay type: cell-based, humans
Method: Peripheral blood mononuclear cells (hereinafter, “PBMCs”) were isolated from the blood of 5 healthy humans by Ficoll-Hypaque (Amersham Pharmacia Biotech, Baie d'Urfee, Quebec, Canada) density gradient centrifugation of whole blood. Stimulation of IL-6 and IL-12 production by the immune system cells was determined using the appropriate commercial ELISA (BioSource, Camarillo, CA, USA). Results are expressed as the “fold” (x) increases in cytokine production by treated cells compared to control cells.
PBMCs were incubated with 1 mg/ml of 5.0-7.5 x 105 Da and production of IL-6 and IL-12 was determined (Table 9).
PBMCs, isolated from the blood of individual #1, were incubated with 0.008, 0.04, 0.2 and 1 mg/ml of 5.0-7.5 x 10^5 Da (Table 10)

Substance: Hyaluronic acid [5.0-7.5 × 10^5 Da HA]
- % INHIBITION of cell proliferation ([1]; HA 0.01 μg/ml alone): 6%
- % INHIBITION of cell proliferation ([1]; HA 0.1 μg/ml alone): 5%
- IL-6 production, fold increase vs control cells ([2]; PBMCs of individual 1, HA 1 mg/ml): 3.8x
- IL-6 production, fold increase vs control cells ([2]; PBMCs of individual 2, HA 1 mg/ml): 1.8x
- IL-6 production, fold increase vs control cells ([2]; PBMCs of individual 3, HA 1 mg/ml): 4.1x
- IL-6 production, fold increase vs control cells ([2]; PBMCs of individual 4, HA 1 mg/ml): 1.4x
- IL-6 production, fold increase vs control cells ([2]; PBMCs of individual 5, HA 1 mg/ml): 6.3x
- IL-6 production, fold increase vs control cells ([2]; PBMCs of individual #1, HA 0.008 mg/ml): 2.4x
- IL-6 production, fold increase vs control cells ([2]; PBMCs of individual #1, HA 0.040 mg/ml): 3.5x
- IL-6 production, fold increase vs control cells ([2]; PBMCs of individual #1, HA 0.200 mg/ml): 2.9x
